Assay [1] concerns the target T1, human GLP-1 receptor (Homo sapiens, UniProt P43220).
T1 construct: expressed in transfected cells; host or cells: membranes prepared from BHK cells (parent line BHKTS13), clone FCW467-12A
Briefly: In vitro potency, CRE luciferase reporter gene assay in BHK cells expressing the human GLP-1 receptor. The format is cell-based. The settings on record: whole cell reporter gene assay, 3 h incubation, no HSA, averages of at least two replicates. The procedure: The purpose of this example is to test the activity, or potency, of the GLP-1 derivatives in vitro. The in vitro potency is the measure of human GLP-1 receptor activation in a whole cell assay.
Semaglutide was included for comparison.
In vitro potency was determined by measuring the response of the human GLP-1 receptor in a reporter gene assay. The assay was performed in a stably transfected BHK cell line that expresses the human GLP-1 receptor and contains the DNA for the cAMP response element (CRE) coupled to a promoter and the gene for firefly luciferase (CRE luciferase). When the human GLP-1 receptor is activated it results in the production of cAMP, which in turn results in the luciferase protein being expressed. When assay incubation is completed the luciferase substrate (luciferin) is added and the enzyme converts luciferin to oxyluciferin to produce bioluminescence. The luminescence is measured as the readout for the assay.
The cells used in this assay (clone FCW467-12A/KZ10-1) were BHK cells with BHKTS13 as a parent cell line. The cells were derived from a clone (FCW467-12A) that expresses the human GLP-1 receptor and were established by further transfection with CRE luciferase to obtain the current clone.
The cells were cultured at 5% CO2 in Cell Culture Medium. They were aliquoted and stored in liquid nitrogen. Before each assay an aliquot is taken up and washed twice in PBS before being suspended at the desired concentration in the assay specific buffer. For 96-well plates the suspension was made to give a final concentration of 5×10^3 cells/well.
The following chemicals were used in the assay: Pluronic F-68 (10%) (Gibco 2404), human serum albumin (HSA) (Sigma A9511), ovalbumin (Sigma A5503), DMEM w/o phenol red (Gibco 11880-028), 1 M Hepes (Gibco 15630), Glutamax 100× (Gibco 35050) and steadylite plus (PerkinElmer 6016757).
Cell Culture Medium consisted of DMEM medium with 10% FBS (Fetal Bovine Serum; Invitrogen 16140-071), 1 mg/ml G418 (Invitrogen 15140-122), 240 nM MTX (methotrexate; Sigma M9929) and 1% pen/strep (penicillin/streptomycin; Invitrogen 15140-122).
Assay Medium consisted of DMEM w/o phenol red, 10 mM Hepes and 1× Glutamax. The Assay Buffer consisted of 2% ovalbumin and 0.2% Pluronic F-68 in Assay Medium.
1) Cell stocks were thawed in a 37° C. water bath.
2) Cells were washed three times in PBS.
3) The cells were counted and adjusted to 5×10^3 cells/50 μl (1×10^5 cells/ml) in Assay Medium. A 50 μl aliquot of cells was transferred to each well in the assay plate.
4) Stocks of the test compounds and reference compounds were diluted to a concentration of 0.2 μM in Assay Buffer. Compounds were diluted 10-fold to give the following concentrations: 2×10^−7 M, […]; 2×10^−9 M, 2×10^−10 M, 2×10^−11 M, 2×10^−12 M, 2×10^−13 M, and 2×10^−14 M. 5) A 50 μl aliquot of compound or blank was transferred from the dilution plate to the assay plate. Compounds were tested at the following final concentrations: 1×10^−7 M, 1×10^−8 M; 1×10^−9 M, 1×10^−10 M, 1×10^−11 M, 1×10^−12 M, 1×10^−13 M, and 1×10^−14 M. 6) The assay plate was incubated for 3 h in a 5% CO2 incubator at 37° C. 7) The assay plate was removed from the incubator and allowed to stand at room temperature for 15 min. 8) A 100 μl aliquot of steadylite plus reagent was added to each well of the assay plate (reagent was light sensitive). 9) Each assay plate was covered with aluminum foil to protect it from light and shaken for 30 min at room temperature. 10) Each assay plate was read in a Packard TopCount NXT instrument. Calculations and Results
The data from the TopCount instrument were transferred to GraphPad Prism software. The software performs a non-linear regression (log(agonist) vs response).
A minimum of two replicates was measured for each sample. The reported values are averages of the replicates.
In general terms: Reporter assays use an easily measured gene product as a stand-in for the process of interest.

Assay [2] deals with T1, human GLP-1 receptor. Briefly: GLP-1 receptor binding, competitive binding assay (125I-GLP-1, SPA) on isolated membranes.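 Further: test compounds added at a range of concentrations to membranes from cells expressing the human GLP-1 receptor, scored by displacement of labelled ligand, read with WGA SPA beads.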
[3] abbreviates: High HSA IC50 (nM), high serum albumin (2.0% HSA final assay concentration).
Where [4] appears, read: Low HSA IC50 (nM), low serum albumin (max. 0.001% final assay concentration).

Numbered stars: 1 amine (or outer) side, 2 acyl side, 3 side chain; on linkers, the order of the positions; unused ones are H or OH. Square brackets hold non-standard residues; d marks the D form. Side chains are listed from the residue outwards. Peptide text beside a SMILES is read from it. * marks the point of attachment. C20 diacid = O=C(O)CCCCCCCCCCCCCCCCCCC(=O)*; γGlu = O=C(O)[C@H](CCC(=O)[*:2])N[*:1]; Trx = NC[C@H]1CC[C@H](C(=O)O)CC1; AEEA = NCCOCCOCC(=O)O; Aib = CC(C)(N)C(=O)O

T1 sequence (P43220 24-463): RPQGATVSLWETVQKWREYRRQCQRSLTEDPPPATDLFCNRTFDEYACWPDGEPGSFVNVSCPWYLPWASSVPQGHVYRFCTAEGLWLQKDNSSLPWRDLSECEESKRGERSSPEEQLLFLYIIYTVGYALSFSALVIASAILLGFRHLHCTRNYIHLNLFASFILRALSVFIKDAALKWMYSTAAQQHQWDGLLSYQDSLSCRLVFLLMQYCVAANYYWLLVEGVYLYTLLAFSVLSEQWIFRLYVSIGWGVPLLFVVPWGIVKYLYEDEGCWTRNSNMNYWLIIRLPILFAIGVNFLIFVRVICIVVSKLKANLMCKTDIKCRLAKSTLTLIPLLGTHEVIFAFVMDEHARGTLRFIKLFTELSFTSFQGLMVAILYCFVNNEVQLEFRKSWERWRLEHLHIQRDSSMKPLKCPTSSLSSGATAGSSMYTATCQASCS

As a reminder, the EC50 is the concentration giving half of the maximal effect. Lower therefore signals an effect from little substance. The IC50 is the midpoint of a concentration-inhibition curve. High values mean weaker potency in that assay, low ones greater potency in that assay. Regarding `CC[C@H](C)[C@H](NC(=O)[C@H](Cc1ccccc1)NC(=O)[C@H](CCC(=O)O)NC(=O)[C@H](CCCNC(=N)N)NC(=O)[C@H](C)NC(=O)[C@H](C)NC(=O)[C@H](CCC(N)=O)NC(=O)[C@H](CCC(=O)O)NC(=O)[C@H](CCC(=O)O)NC(=O)[C@H](CC(C)C)NC(=O)[C@H](Cc1ccc(O)cc1)NC(=O)[C@H](CO)NC(=O)[C@H](CO)NC(=O)[C@@H](NC(=O)[C@H](CC(=O)O)NC(=O)[C@H](CO)NC(=O)[C@@H](NC(=O)[C@H](Cc1ccccc1)NC(=O)[C@@H](NC(=O)CNC(=O)[C@H](CCC(=O)O)NC(=O)C(C)(C)NC(=O)[C@@H](N)Cc1c[nH]cn1)[C@@H](C)O)[C@@H](C)O)C(C)C)C(=O)N[C@@H](C)C(=O)N[C@@H](Cc1c[nH]c2ccccc12)C(=O)N[C@@H](CC(C)C)C(=O)N[C@H](C(=O)N[C@@H](CCCNC(=N)N)C(=O)NCC(=O)N[C@@H](CCCCNC(=O)COCCOCCNC(=O)COCCOCCNC(=O)CC[C@H](NC(=O)[C@H]1CC[C@H](CNC(=O)CCCCCCCCCCCCCCCCCCC(=O)O)CC1)C(=O)O)C(=O)NCC(=O)N1CCC[C@H]1C(=O)N[C@@H](C)C(=O)N[C@@H](CO)C(=O)N[C@@H](CCC(=O)O)C(=O)N[C@@H](CCCCNC(=O)COCCOCCNC(=O)COCCOCCNC(=O)CC[C@H](NC(=O)[C@H]1CC[C@H](CNC(=O)CCCCCCCCCCCCCCCCCCC(=O)O)CC1)C(=O)O)C(=O)O)C(C)C` [Example 15] (H-H[Aib]EGTFTSDVSSYLEEQAAREFIAWLVRGK([AEEA-AEEA-γGlu-Trx-C20 diacid])GPASEK([AEEA-AEEA-γGlu-Trx-C20 diacid])-OH), the EC50 in assay [1] came out at 0.02 nM. For the same molecule, the IC50 in assay [2] (setting [3]) came to 928 nM; in assay [2] (setting [4]), 1.6 nM.
The like results for `CC[C@H](C)[C@H](NC(=O)[C@H](Cc1ccccc1)NC(=O)[C@H](CCC(=O)O)NC(=O)[C@H](CCCNC(=N)N)NC(=O)[C@H](C)NC(=O)[C@H](C)NC(=O)[C@H](CCC(N)=O)NC(=O)[C@H](CCC(=O)O)NC(=O)[C@H](CCC(=O)O)NC(=O)[C@H](CC(C)C)NC(=O)[C@H](Cc1ccc(O)cc1)NC(=O)[C@H](CO)NC(=O)[C@H](CO)NC(=O)[C@@H](NC(=O)[C@H](CC(=O)O)NC(=O)[C@H](CO)NC(=O)[C@@H](NC(=O)[C@H](Cc1ccccc1)NC(=O)[C@@H](NC(=O)CNC(=O)[C@H](CCC(=O)O)NC(=O)C(C)(C)NC(=O)[C@@H](N)Cc1c[nH]cn1)[C@@H](C)O)[C@@H](C)O)C(C)C)C(=O)N[C@@H](C)C(=O)N[C@@H](Cc1c[nH]c2ccccc12)C(=O)N[C@@H](CC(C)C)C(=O)N[C@H](C(=O)N[C@@H](CCCNC(=N)N)C(=O)NCC(=O)N[C@@H](CCCCNC(=O)COCCOCCNC(=O)COCCOCCNC(=O)CC[C@H](NC(=O)[C@H]1CC[C@H](CNC(=O)CCCCCCCCCCCCCCCCCCC(=O)O)CC1)C(=O)O)C(=O)NCC(=O)N[C@@H](CCC(=O)O)C(=O)NCC(=O)N1CCC[C@H]1C(=O)N[C@@H](C)C(=O)N[C@@H](CCCCNC(=O)COCCOCCNC(=O)COCCOCCNC(=O)CC[C@H](NC(=O)[C@H]1CC[C@H](CNC(=O)CCCCCCCCCCCCCCCCCCC(=O)O)CC1)C(=O)O)C(=O)O)C(C)C` [Example 16] (H-H[Aib]EGTFTSDVSSYLEEQAAREFIAWLVRGK([AEEA-AEEA-γGlu-Trx-C20 diacid])GEGPAK([AEEA-AEEA-γGlu-Trx-C20 diacid])-OH) were, in that order, 0.025 nM, 602 nM and 1.4 nM.

The values are drawn from patent publication US10010614B2, “Derivatives of GLP-1 like peptides, and uses thereof” (Novo Nordisk A/S, priority 2013, dated 2018).
